In US9920060B2, “Pyrazolo[3,4-d]pyrimidine compound or salt thereof” (TAIHO PHARMACEUTICAL CO., LTD., priority 2015, dated 2018):

These molecules were tested against purified recombinant human HER2 protein (Homo sapiens (Human), UniProt P04626) (assay: Inhibitory effect on HER2-phosphorylating activity (in vitro)). Settings: ATP 6 uM, substrate peptide 0.5 uM, 25° C. for 40 minutes.
Assay type: biochemical
Procedure: Next, the HER2 protein, the substrate peptide (final concentration: 0.5 uM), manganese chloride (final concentration: 10 mM), ATP (final concentration: 6 uM), and the solution of the compound of the present invention in DMSO (final concentration of DMSO: 5%) were added into a buffer solution for kinase reaction (15 mM Tris (pH 7.5), 2 mM dithiothreitol, and 0.01% Tween 20), and the mixture was incubated at 25° C. for 40 minutes for kinase reaction. The reaction was terminated by adding EDTA (final concentration: 30 mM) thereto. Finally, the unphosphorylated substrate peptide (S) and the phosphorylated peptide (P) were separated and detected by microcapillary electrophoresis using LabChip® EZ Reader II (PerkinElmer Inc.).

Sequence of purified recombinant human HER2 protein (P04626 23-1255): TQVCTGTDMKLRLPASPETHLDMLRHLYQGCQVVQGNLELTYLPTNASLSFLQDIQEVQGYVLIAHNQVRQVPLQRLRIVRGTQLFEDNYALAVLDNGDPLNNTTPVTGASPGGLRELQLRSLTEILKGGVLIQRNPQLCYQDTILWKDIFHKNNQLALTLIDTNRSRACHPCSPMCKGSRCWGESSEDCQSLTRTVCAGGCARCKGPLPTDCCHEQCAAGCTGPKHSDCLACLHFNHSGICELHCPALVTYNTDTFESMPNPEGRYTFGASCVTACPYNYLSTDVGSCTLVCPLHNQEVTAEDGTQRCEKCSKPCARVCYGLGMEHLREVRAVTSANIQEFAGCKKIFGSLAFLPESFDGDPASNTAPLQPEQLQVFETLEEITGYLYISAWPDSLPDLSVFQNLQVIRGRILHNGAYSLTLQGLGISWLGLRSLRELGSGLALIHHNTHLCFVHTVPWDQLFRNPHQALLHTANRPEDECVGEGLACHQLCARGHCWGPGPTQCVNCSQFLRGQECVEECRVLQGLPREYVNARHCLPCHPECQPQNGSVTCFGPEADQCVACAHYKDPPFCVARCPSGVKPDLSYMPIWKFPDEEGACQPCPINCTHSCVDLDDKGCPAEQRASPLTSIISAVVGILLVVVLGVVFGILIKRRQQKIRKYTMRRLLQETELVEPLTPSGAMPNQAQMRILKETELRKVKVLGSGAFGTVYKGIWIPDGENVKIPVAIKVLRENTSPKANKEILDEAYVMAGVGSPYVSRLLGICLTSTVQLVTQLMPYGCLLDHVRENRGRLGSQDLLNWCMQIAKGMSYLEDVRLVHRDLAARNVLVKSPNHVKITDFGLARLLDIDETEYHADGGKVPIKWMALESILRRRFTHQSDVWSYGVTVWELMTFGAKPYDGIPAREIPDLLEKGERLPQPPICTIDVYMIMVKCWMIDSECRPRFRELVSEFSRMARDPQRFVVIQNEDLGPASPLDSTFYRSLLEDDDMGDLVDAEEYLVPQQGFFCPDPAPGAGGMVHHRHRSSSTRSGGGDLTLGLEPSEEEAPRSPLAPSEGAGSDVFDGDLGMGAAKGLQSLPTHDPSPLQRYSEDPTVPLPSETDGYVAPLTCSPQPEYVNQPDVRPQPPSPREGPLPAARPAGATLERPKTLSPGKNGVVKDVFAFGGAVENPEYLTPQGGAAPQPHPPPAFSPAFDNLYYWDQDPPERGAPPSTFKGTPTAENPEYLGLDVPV

C=CC(=O)N1CCC[C@@H](n2nc(C(=O)Nc3ccc(CC(=O)N(C)C)c4ccccc34)c3c(N)ncnc32)C1 [Example 5, (R)-1-(1-acryloylpiperidin-3-yl)-4-amino-N-(4-(2-(dimethylamino)-2-oxoethyl)naphthalen-1-yl)-1H-pyrazolo[3,4-d]pyrimidine-3-carboxamide] and C=CC(=O)N1CCC[C@@H](n2nc(C(=O)Nc3ccc(CC(=O)N(C)C)c(C)c3C)c3c(N)ncnc32)C1 [Example 13, (R)-1-(1-acryloylpiperidin-3-yl)-4-amino-N-(4-(2-(dimethylamino)-2-oxoethyl)-2,3-dimethylphenyl)-1H-pyrazolo[3,4-d]pyrimidine-3-carboxamide] are within 1.5-fold of each other in IC50: 11 nM for the first, 13 nM for the second.

Compared with C=CC(=O)N1CCC[C@@H](n2nc(C(=O)Nc3ccc(OC(=O)N(C)C)cc3)c3c(N)ncnc32)C1 [Example 21, (R)-4-(1-(1-acryloylpiperidin-3-yl)-4-amino-1H-pyrazolo[3,4-d]pyrimidine-3-carboxamido)phenyldimethyl carbamate], C=CC(=O)N1CCC[C@@H](n2nc(C(=O)Nc3ccc(NC(=O)N(C)C)cc3C)c3c(N)ncnc32)C1 [Example 74, (R)-1-(1-acryloylpiperidin-3-yl)-4-amino-N-(4-(3,3-dimethylureido)-2-methylphenyl)-1H-pyrazolo[3,4-d]pyrimidine-3-carboxamide] is 1.5-fold lower in IC50: 26 nM for the first, 17 nM for the second. The second is the more potent here.

C=CC(=O)N1CCC[C@@H](n2nc(C(=O)Nc3ccc(CC(=O)N(C)C)cc3F)c3c(N)ncnc32)C1 [Example 25, (R)-1-(1-acryloylpiperidin-3-yl)-4-amino-N-(4-(2-(dimethylamino)-2-oxoethyl)-2-fluorophenyl)-1H-pyrazolo[3,4-d]pyrimidine-3-carboxamide] and C=CC(=O)N1CCC[C@@H](n2nc(C(=O)Nc3cc(C)c(CC(=O)N(C)C)cc3C)c3c(N)ncnc32)C1 [Example 39, (R)-1-(1-acryloylpiperidin-3-yl)-4-amino-N-(4-(2-(dimethylamino)-2-oxoethyl)-2,5-dimethylphenyl)-1H-pyrazolo[3,4-d]pyrimidine-3-carboxamide] are within 1.5-fold of each other in IC50: 21 nM for the first, 22 nM for the second.

C=CC(=O)N1CCC[C@@H](n2nc(C(=O)Nc3ccc(CC(=O)N4CCCC4)cc3C)c3c(N)ncnc32)C1 [Example 71, (R)-1-(1-acryloylpiperidin-3-yl)-4-amino-N-(2-methyl-4-(2-oxo-2-(pyrrolidin-1-yl)ethyl)phenyl)-1H-pyrazolo[3,4-d]pyrimidine-3-carboxamide] and C=CC(=O)N1CCC[C@@H](n2nc(C(=O)Nc3ccc(NC(=O)N4CCCC4)cc3C)c3c(N)ncnc32)C1 [Example 75, (R)-1-(1-acryloylpiperidin-3-yl)-4-amino-N-(2-methyl-4-(pyrrolidine-1-carboxamido)phenyl)-1H-pyrazolo[3,4-d]pyrimidine-3-carboxamide] are within 1.5-fold of each other in IC50: 11 nM for the first, 16 nM for the second.

First: C=CC(=O)N1CCC[C@@H](n2nc(C(=O)Nc3ccc(CC(=O)N4CC(O)C4)cc3C)c3c(N)ncnc32)C1 [Example 73, (R)-1-(1-acryloylpiperidin-3-yl)-4-amino-N-(4-(2-(3-hydroxyazetidin-1-yl)-2-oxoethyl)-2-methylphenyl)-1H-pyrazolo[3,4-d]pyrimidine-3-carboxamide]
Second: C=CC(=O)N1CC(F)C[C@@H](n2nc(C(=O)Nc3ccc(CC(=O)N(C)C)cc3Cl)c3c(N)ncnc32)C1 (stereo partly drawn) [Example 76, 1-((3R)-1-acryloyl-5-fluoropiperidin-3-yl)-4-amino-N-(2-chloro-4-(2-(dimethylamino)-2-oxoethyl)phenyl)-1H-pyrazolo[3,4-d]pyrimidine-3-carboxamide]
The IC50 of the first is 15-fold higher: 74 nM for the first, 5 nM for the second.

C=CC(=O)N1CC(F)C[C@@H](n2nc(C(=O)Nc3ccc(CC(=O)N(C)C)c(C)c3C)c3c(N)ncnc32)C1 (stereo partly drawn) [Example 77, 1-((3R)-1-acryloyl-5-fluoropiperidin-3-yl)-4-amino-N-(4-(2-(dimethylamino)-2-oxoethyl)-2,3-dimethylphenyl)-1H-pyrazolo[3,4-d]pyrimidine-3-carboxamide] showed an IC50 of 13 nM.

These molecules were tested on A431 cells (assay: Cytostatic activity against EGFR-expressing cell line A431 (CellTiter-Glo)). Settings: EGFR-overexpressing human epithelioid cancer cell line, 3-day culture; read-out: A431 cell growth inhibitory activity IC50 value.
Assay type: cell-based
Source text: HER2-overexpressing human stomach cancer cell line NCI-N87 cells were suspended in RPMI1640 medium (manufactured by Life Technologies Corp.) containing 10% fetal bovine serum. Meanwhile, EGFR-overexpressing highly activated human epithelioid cancer cell line A431 cells were suspended in DMEM, high glucose medium (manufactured by Life Technologies Corp.) containing 10% fetal bovine serum. Subsequently, each cell suspension was inoculated to each well of a 384-well flat-bottom microplate and cultured at 37° C. for 1 day in an incubator containing 5% carbon dioxide. The compound of the present invention or Comparative Example compound 1 was dissolved in DMSO, and the test compound was diluted into a concentration of 500 times the final concentration using DMSO. The solution of the test compound in DMSO was diluted with the medium used in the suspension of each cell line, and this solution was added at a final concentration of DMSO of 0.2% to each well of the cell culture plate, followed by further culture at 37° C. for 3 days in an incubator containing 5% carbon dioxide.
Rate of growth inhibition (%)=(C−T)/(C)×100 T: Luminescence intensity of a well supplemented with the test compound C: Luminescence intensity of a well not supplemented with the test compound

With “(R,E)-4-(4-amino-1-(1-(4-dimethylamino)but-2-enoyl)piperidin-3-yl)-1H-pyrazolo[3,4-d]pyrimidine-3-carboxamido)naphthalen-1-yl dimethylcarbamate [Example 66]” the IC50 was 6040 nM.
